Laboratory results reported in patent US6939554B2, “Antimicrobial polymer” (Michigan Biotechnology Institute, priority 2002, dated 2005).

Tested on: potential human pathogenic microorganisms
Assay: Antimicrobial activity assay, overall assessment across target microorganisms
Type: cell-based
Conditions: among the seven antimicrobials tested, in the polymer coatings
Protocol: The selection of target microorganisms for examining the antimicrobial activity of the coated polydimethylsiloxane substrates produced in the Control Example and Examples 1-16 was based on the potential human pathogenic microorganisms, which include gram positive bacteria, Bacillus subtilis and Staphylococcus aureus; gram negative bacteria, E. coli and Pseudomonas aeruginosa; and yeast, Candida albicans. Broth cultures were prepared for each microorganism. Bacteria, Bacillus subtilis, Staphylococcus aureus, E. coli and Pseudomonas aeruginosa were grown in 50 milliliters of sterile tryptic soy broth in a 500 milliliter baffle flask at 200 rpm. The cultures were grown at 37° C. overnight, and used for antimicrobial activity assay plates and stock culture. The yeast, Candida albicans was cultivated in 50 milliliters of sterile yeast malt broth in a 250 milliliter baffle flask at 25-28° C. for 1 day and used for the activity assay plates and stock culture.
Antimicrobial activity assay plates were then prepared. Yeast malt agar and tryptic soy agar were autoclaved for 20 minutes. The sterile molten agar was allowed to cool to 42-45° C. The prepared broth cultures of the target microorganisms were inoculated to a final concentration of 5% (v/v). […]

## [H]/N=C(\N/C(=N/[H])NCCCCCCNC(=N)NC(=N)Nc1ccc(Cl)cc1)Nc1ccc(Cl)cc1 [chlorhexidine, 1,6-bi(N^5-p-chlorophenyl-N^1-biguanido)hexane]
  Antimicrobial activity: ability to suppress the colonization and spectrum of action (in words): high activity
